This is an account of results in US20230285310A1, “COMPOSITIONS FOR THE DELIVERY OF PAYLOAD MOLECULES TO AIRWAY EPITHELIUM” (ModernaTX, Inc., priority 2020, published 2023).

One assay has as its system HeLa cells. Put plainly: Protein expression assay in HeLa cells (One-Glo luciferase, NPI-Luc mRNA). It counts as cell-based, human. The note with it: 5 h, no serum, 4 wells, sterol amine post-added to LNP core Compound 18, DSPC, Cholesterol plus DMG-PEG 2K (SA3, SA11, SA24, SA26, SA39, SA32), plus Compound 428 (SA4, SA6, SA10, SA16), or plus β-sitosterol and DMG-PEG 2K (SA23, SA29, SA30, SA31). Here is the method:
To evaluate protein expression In Vitro, HeLa cells from ATCC.org (ATCC CCL-2) are used. The cells are cultured in complete Minimum Essential Medium (MEM) and are plated in 96 well Cell Carrier Ultra plate with PDL coated surface (PerkinElmer) prior to running an experiment.
LNPs encapsulating NPI-Luc mRNA were dosed with MEM media in the absence of serum. LNP transfected cell were incubated for 5 h post LNP transfection, the cells were imaged live using Opera Phoenix spinning disk confocal microscope (PerkinElmer). Cells were detected using DAPI (405 nm channel), and image analysis was performed in Harmony 4.9, to quantify the number of cells. After imaging the cells were processed with One-Glo Luciferase assay (Promega) to quantify protein expression. Results were reported in relative luminescence units (RLU) normalized to cells counts.
LNPs were prepared according to Example 2 using NPI-Luc as the mRNA construct. NPI-Luc is a dual read reporter made by adding a 5xV5 tag and a C-myc nuclear localization sequence at the N-terminus of Firefly Luciferase to enhance the signal to noise ratio. Protein expression can be detected using OneGLo assays with luminescence readout or by immunofluorescence with anti-V5 antibodies. Protein expression was evaluated according to the procedure outlined in Example 7. The LNPs are dosed in 4 wells and the average response was reported. For the HeLa assay the luminescence read (RLU) were normalized to cell counts.

The test system of assay [1] is respiratory epithelium. In words: LNP protein expression in mouse after single dose of mRNA-LNP by intratracheal delivery (anti-V5 IHC). Type of assay: in vivo. The note with it: intratracheal instillation, ~0.7 mpk, NPI-Luc mRNA, core with β-sitosterol for SA23, SA31. Here is the method: (§1) Animals are anesthetized under isoflurane. The tongue is displaced and a small diameter cannula is inserted into the trachea (oropharyngeal route). The cannula tip is passed through the vocal chords, down the trachea so that the tip is very near, but not touching, the carina. Upon placement, 50 μL (mouse) or 200 μL (rat) of formulation is infused into the lungs. After 30 seconds upright, animals are released into a recovery cage and returned to their respective cages once recovered. Trachea, lungs and for the aerosol study nasal cavities, nasopharynx and larynx are collected for analysis. Lungs are inflated with 10% NBF fixative and trachea tied off to maintain inflation. Lungs are removed en bloc with attached trachea, bronchi and lobes. Whole lungs en bloc are fixed in 10% NBF at room temperature for at least 24 hours with a maximum of 48 hours and then removed from fixative and placed in PBS. Samples are immediately sent to be processed for paraffin 5-micron sections and H&E staining. IHC was performed on FFPE sections using the Leica Bond RX autostainer. […] Images were imaged at 20× magnification with the Panoramic 250 Flash III whole slide scanner. Image analysis was completed with Indica Labs HALO image analysis software. […] LNPs were prepared according to Example 2 using NPI-Luc as the mRNA construct. LNPs were delivered to mice by intratracheal instillation for a dose of ˜0.7 mpk. LNP protein expression in respiratory epithelium was evaluated according to sample collection and assay procedures A and B. The results are shown in Table 13a.

Assay [2] has as its system respiratory epithelium. Put plainly: LNP protein expression in rat after single dose of mRNA-LNP by intratracheal delivery (anti-V5 IHC). Type of assay: in vivo. As to conditions: intratracheal instillation, ~1.2 mpk, NPI-Luc mRNA, core with β-sitosterol for SA23. Here is the method:
as §1, with “LNPs were delivered to mice by intratracheal instillation for a dose of ˜0.7 mpk.” left out, “13b.” for “13a.”

Where a name gives a salt, the structure may show the parent alone.

Take `CC(C)CCC[C@@H](C)[C@H]1CC[C@H]2[C@@H]3CC=C4C[C@@H](OC(=O)NCCN(C)CCO)CC[C@]4(C)[C@H]3CC[C@]12C` [SA6, (3S,8S,9S,10R,13R,14S,17R)-10,13-dimethyl-17-((R)-6-methylheptan-2-yl)-2,3,4,7,8,9,10,11,12,13,14,15,16,17-tetradecahydro-1H-cyclopenta[a]phenanthren-3-yl (2-((2-hydroxyethyl)(methyl)amino)ethyl)carbamate]: in the assay with HeLa cells, the “Average protein expression per cell (RLU per cell)” value (from here on “Average protein expression per cell”) amounted to 196.2 RLU per cell.

Take `CC[C@H](CC[C@@H](C)[C@H]1CC[C@H]2[C@@H]3CC=C4C[C@@H](OC(=O)NCCN(C)C)CC[C@]4(C)[C@H]3CC[C@]12C)C(C)C` [SA10, (3S,8S,9S,10R,13R,14S,17R)-17-((2R,5R)-5-Ethyl-6-methylheptan-2-yl)-10,13-dimethyl-2,3,4,7,8,9,10,11,12,13,14,15,16,17-tetradecahydro-1H-cyclopenta[a]phenanthren-3-yl (2-(dimethylamino)ethyl)carbamate]: in the assay on HeLa cells, the “Average protein expression per cell” value is given as 236.6 RLU per cell.

Regarding `CC(C)CCC[C@@H](C)[C@H]1CC[C@H]2[C@@H]3CC=C4C[C@@H](OC(=O)CCc5cnc[nH]5)CC[C@]4(C)[C@H]3CC[C@]12C` [SA11, (3S,8S,9S,10R,13R,14S,17R)-10,13-dimethyl-17-((R)-6-methylheptan-2-yl)-2,3,4,7,8,9,10,11,12,13,14,15,16,17-tetradecahydro-1H-cyclopenta[a]phenanthren-3-yl 3-(1H-imidazol-5-yl)propanoate, hydrochloride salt], in the assay on HeLa cells, the “Average protein expression per cell” value is 5.3 RLU per cell.

As to `CC(C)CCC[C@@H](C)[C@H]1CC[C@H]2[C@@H]3CC=C4C[C@@H](OC(=O)NCCNC(=N)N)CC[C@]4(C)[C@H]3CC[C@]12C` [SA23, (3S,8S,9S,10R,13R,14S,17R)-10,13-dimethyl-17-((R)-6-methylheptan-2-yl)-2,3,4,7,8,9,10,11,12,13,14,15,16,17-tetradecahydro-1H-cyclopenta[a]phenanthren-3-yl (2-guanidinoethyl)carbamate, hydrochloride salt], the “Average protein expression per cell” value in the assay with HeLa cells came out at 868.8 RLU per cell. Also, the “Average % V5 positive cells/total cells” value with respiratory epithelium [1] (Mouse Bronchi (left lung)) is given as 0.98%; with respiratory epithelium [1] (Mouse Trachea), 0.8%; with respiratory epithelium [2] (Rat Bronchi (left and right lung)) it was 1.38%; in the assay with respiratory epithelium [2] (Rat Trachea) it was 0.83%.

As for `CC(C)CCC[C@@H](C)[C@H]1CC[C@H]2[C@@H]3CC=C4C[C@@H](OC(=O)CCC(=O)N(CCCN(C)C)CCCN(C)C)CC[C@]4(C)[C@H]3CC[C@]12C` [SA24, (3S,8S,9S,10R,13R,14S,17R)-10,13-Dimethyl-17-((R)-6-methylheptan-2-yl)-2,3,4,7,8,9,10,11,12,13,14,15,16,17-tetradecahydro-1H-cyclopenta[a]phenanthren-3-yl 4-(bis(3-(dimethylamino)propyl)amino)-4-oxobutanoate dihydrochloride], the “Average protein expression per cell” value in the assay on HeLa cells is reported as 457.2 RLU per cell.

Regarding `CC(C)CCC[C@@H](C)[C@H]1CC[C@H]2[C@@H]3CC=C4C[C@@H](OC(=O)NCCNc5c(NCCCN(C)C)c(=O)c5=O)CC[C@]4(C)[C@H]3CC[C@]12C` [SA26, (3S,8S,9S,10R,13R,14S,17R)-10,13-dimethyl-17-((R)-6-methylheptan-2-yl)-2,3,4,7,8,9,10,11,12,13,14,15,16,17-tetradecahydro-1H-cyclopenta[a]phenanthren-3-yl (2-((2-((3-(dimethylamino)propyl)amino)-3,4-dioxocyclobut-1-en-1-yl)amino)ethyl)carbamate, hydrochloride salt], the “Average protein expression per cell” value in the assay on HeLa cells is reported as 84.3 RLU per cell.

As to `CC(C)CCC[C@@H](C)[C@H]1CC[C@H]2[C@@H]3CC=C4C[C@@H](OC(=O)N(CCCN)CCCCN)CC[C@]4(C)[C@H]3CC[C@]12C` [SA29, (3S,8S,9S,10R,13R,14S,17R)-10,13-Dimethyl-17-((R)-6-methylheptan-2-yl)-2,3,4,7,8,9,10,11,12,13,14,15,16,17-tetradecahydro-1H-cyclopenta[a]phenanthren-3-yl (4-aminobutyl)(3-aminopropyl)carbamate dihydrochloride], in the assay with HeLa cells, the “Average protein expression per cell” value is 550.3 RLU per cell.

As for `CC(C)CCC[C@@H](C)[C@H]1CC[C@H]2[C@@H]3CC=C4C[C@@H](OC(=O)NCCCNCCCCN)CC[C@]4(C)[C@H]3CC[C@]12C` [SA30, (3S,8S,9S,10R,13R,14S,17R)-10,13-Dimethyl-17-((R)-6-methylheptan-2-yl)-2,3,4,7,8,9,10,11,12,13,14,15,16,17-tetradecahydro-1H-cyclopenta[a]phenanthren-3-yl (3-((4-aminobutyl)amino)propyl)carbamate dihydrochloride], in the assay with HeLa cells, the “Average protein expression per cell” value was found to be 648.3 RLU per cell.

Consider `CC(C)CCC[C@@H](C)[C@H]1CC[C@H]2[C@@H]3CC=C4C[C@@H](OC(=O)CCC(=O)N(CCCN)CCCCN)CC[C@]4(C)[C@H]3CC[C@]12C` [SA31, (3S,8S,9S,10R,13R,14S,17R)-10,13-Dimethyl-17-((R)-6-methylheptan-2-yl)-2,3,4,7,8,9,10,11,12,13,14,15,16,17-tetradecahydro-1H-cyclopenta[a]phenanthren-3-yl 4-((4-aminobutyl)(3-aminopropyl)amino)-4-oxobutanoate dihydrochloride], for which, in the assay on HeLa cells, the “Average protein expression per cell” value amounted to 643.6 RLU per cell. Besides, the “Average % V5 positive cells/total cells” value in the assay on respiratory epithelium [1] (Mouse Bronchi (left lung)) turned out to be 10.52%; in the assay with respiratory epithelium [1] (Mouse Trachea), 27.07%.

As to `CC(C)CCC[C@@H](C)[C@H]1CC[C@H]2[C@@H]3CC=C4C[C@@H](OC(=O)CC5CN6CCC5CC6)CC[C@]4(C)[C@H]3CC[C@]12C` (stereo partly drawn) [SA32, (3S,8S,9S,10R,13R,14S,17R)-10,13-Dimethyl-17-((R)-6-methylheptan-2-yl)-2,3,4,7,8,9,10,11,12,13,14,15,16,17-tetradecahydro-1H-cyclopenta[a]phenanthren-3-yl 2-(quinuclidin-3-yl)acetate], in the assay on HeLa cells, the “Average protein expression per cell” value was found to be 301.8 RLU per cell.

Turning to `CC(C)CCC[C@@H](C)[C@H]1CC[C@H]2[C@@H]3CC=C4C[C@@H](SSCCC(=O)N(CCCN)CCCCNCCCN)CC[C@]4(C)[C@H]3CC[C@]12C` [SA39, N-(3-Aminopropyl)-N-(4-((3-aminopropyl)amino)butyl)-3-(((3S,8S,9S,10R,13R,14S,17R)-10,13-dimethyl-17-((R)-6-methylheptan-2-yl)-2,3,4,7,8,9,10,11,12,13,14,15,16,17-tetradecahydro-1H-cyclopenta[a]phenanthren-3-yl)disulfaneyl)propanamide trihydrochloride], the “Average protein expression per cell” value with HeLa cells worked out at 201.9 RLU per cell.
